# Test results as given in paper PMC3050703 (Cancer chemotherapy and pharmacology, 2010).
# Like-named read-outs stand apart in the source and are kept apart here.
# Experiments:
# Abl = settings: read-out: Ki Abl; ref [3]; cited from earlier work
# Aurora kinase A = settings: read-out: Ki Aurora kinase A; ref [3]; cited from earlier work
# HCT116 colon cancer = settings: ref [1], cited from earlier work
# advanced solid tumors = experiment: Anti-tumor activity per RECIST in patients; format: in vivo, human
# [1] = test system: xenografts of leukemia, pancreatic cancer, and colon cancer; settings: ref [1]; cited from earlier work
# T315I mutant Abl kinase = settings: read-out: Ki T315I mutant Abl; ref [3]; cited from earlier work
# MCF-7 cells = settings: read-out: IC50 proliferation of transformed MCF-7 cells; ref [1]; cited from earlier work
# [2] = Plasma pharmacokinetics in patients; format: in vivo, human; settings: for clearance / half-life / Vd / Cmax: human, plasma, intravenous
# [3] = Dose Level 1 (4 mg/m^2/hr), N=1, any cycle, regardless of attribution
# [4] = Dose Level 2 (8 mg/m^2/hr), N=2, any cycle, regardless of attribution
# [5] = Dose Level 3 (16 mg/m^2/hr), N=2, any cycle, regardless of attribution
# [6] = Dose Level 4 (32 mg/m^2/hr), N=3, any cycle, regardless of attribution
# [7] = Dose Level 5 (45 mg/m^2/hr), N=4, any cycle, regardless of attribution
# [8] = Dose Level 6 (64 mg/m^2/hr), N=2, any cycle
# [9] = Dose Level 6 (64 mg/m^2/hr), N=2, any cycle, regardless of attribution
# [10] = Dose Level 6 (oral 100 mg) (64 mg/m^2/hr), N=7, any cycle
# [11] = Dose Level 6 (oral 100 mg) (64 mg/m^2/hr), N=7, any cycle, regardless of attribution
# [12] = Dose Level 7 (96 mg/m^2/hr), N=6, any cycle
# [13] = Dose Level 7 (96 mg/m^2/hr), N=6, any cycle, regardless of attribution
compound,measurement,setting,value
Cc1cc(Nc2cc(N3CCN(C)CC3)nc(Sc3ccc(NC(=O)C4CC4)cc3)n2)[nH]n1 [MK-0457],Ki,Abl,30 nM
same,"marked tumor regression, number of HCT116 nude rat models",HCT116 colon cancer,4 of 7
same,objective anti-tumor responses (RECIST),advanced solid tumors; all dose levels,no objective anti-tumor responses
same,patients with stable disease (2 or more cycles without progression),advanced solid tumors; all dose levels,12 patients
same,tumor response in nude mice xenografts,[1],marked tumor regression
same,Ki,T315I mutant Abl kinase,42 nM
same,IC50,MCF-7 cells,15 to 113 nM
same,dose limiting toxicity,96 mg/m^2/hr 24-hour CIV infusion (dose level 7),grade 4 neutropenia and grade 3 herpes zoster
same,maximum tolerated dose (MTD),"24-hour CIV infusion every 21 days, patients with advanced solid tumors",64 mg/m^2/hr
same,number of patients with Fatigue Grade 2,[3],1
same,number of patients with Nausea Grade 3,[3],1
same,number of patients with Vomiting Grade 3,[3],1
same,number of patients with Arthralgia Grade 2,[4],1
same,number of patients with Back pain Grade 2,[4],1
same,number of patients with Fatigue Grade 2,[4],1
same,number of patients with Hypoalbuminemia Grade 2,[4],1
same,number of patients with Increased alk phos (alkaline phosphatase) Grade 2,[4],1
same,number of patients with Urinary tract infection Grade 2,[4],1
same,number of patients with Diarrhea Grade 2,[5],1
same,number of patients with Nausea Grade 3,[5],1
same,number of patients with Vomiting Grade 3,[5],1
same,number of patients with Arthralgia Grade 2,[6],1
same,number of patients with Diarrhea Grade 2,[6],1
same,number of patients with Fatigue Grade 2,[6],1
same,number of patients with Nausea Grade 2,[6],1
same,"number of patients with Vomiting (printed on the heading line, no grade)",[6],1
same,number of patients with Neutropenia Grade 3,"Dose Level 5 (45 mg/m^2/hr), N=4, any cycle",1
same,number of patients with Back pain Grade 2,[7],1
same,number of patients with Dyspnea Grade 2,[7],1
same,number of patients with Fatigue Grade 2,[7],2
same,number of patients with Hypophosphatemia Grade 3,[7],1
same,number of patients with Nausea Grade 2,[7],1
same,"number of patients with Vomiting (printed on the heading line, no grade)",[7],1
same,number of patients with Leukopenia Grade 3,[8],1
same,number of patients with Neutropenia Grade 3,[8],1
same,number of patients with Arthralgia Grade 2,[9],1
same,number of patients with Fatigue Grade 3,[9],1
same,number of patients with Hyperglycemia Grade 3,[9],1
same,number of patients with Hypoalbuminemia Grade 2,[9],1
same,number of patients with Hypophosphatemia Grade 2,[9],1
same,number of patients with Urinary tract infection Grade 2,[9],1
same,number of patients with Leukopenia Grade 3,[10],1
same,number of patients with Neutropenia Grade 3,[10],1
same,number of patients with Arthralgia Grade 4,[11],1
same,number of patients with Back pain Grade 2,[11],1
same,number of patients with Diarrhea Grade 3,[11],2
same,number of patients with Dyspnea Grade 2,[11],2
same,number of patients with Fatigue Grade 2,[11],5
same,number of patients with Hyperglycemia Grade 2,[11],1
same,number of patients with Hyperglycemia Grade 3,[11],1
same,number of patients with Hypoalbuminemia Grade 2,[11],1
same,number of patients with Hypophosphatemia Grade 2,[11],2
same,number of patients with Hypophosphatemia Grade 3,[11],1
same,number of patients with Nausea Grade 2,[11],2
same,number of patients with Urinary tract infection Grade 2,[11],1
same,number of patients with Vomiting Grade 3,[11],2
same,number of patients with Anemia Grade 3,[12],1
same,number of patients with Leukopenia Grade 3,[12],3
same,number of patients with Neutropenia Grade 3,[12],1
same,number of patients with Neutropenia Grade 4,[12],1
same,number of patients with Diarrhea Grade 2,[13],1
same,number of patients with Dyspnea Grade 3,[13],1
same,number of patients with Fatigue Grade 2,[13],3
same,number of patients with Hypoalbuminemia Grade 3,[13],1
same,number of patients with Increased alk phos (alkaline phosphatase) Grade 2,[13],1
same,number of patients with Urinary tract infection Grade 2,[13],1
same,prolongation of the QTc,"ECG pre-dose and after 24-hour infusion, cycle 1",not observed
same,febrile neutropenia,"all dose levels, any cycle",no cases
same,patients with dose reduced due to toxicity,of 27 patients (11%),Three
same,patients with treatment delayed or dose reduced due to toxicity,of 27 patients (15%),4 patients
same,patients with serious adverse events regardless of attribution,"of 27 patients (33%), all dose levels",9 patients
same,deaths on study or within 30 days of follow-up,patients who received MK-0457,no deaths
same,adverse events at least possibly related to study drug after oral dose,"single 100 mg capsule, between oral dose and start of CIV infusion, 7 patients",No adverse events
same,Total AUC,"[2]; 24-hour CIV 16 mg/m^2/hr, N=1, cycle 1",18.8 µM·h
same,dose-adjusted AUC (average),[2]; 24-hour CIV infusion,0.0315 µM·h/mg
same,clearance,[2],900 to 2320 mL/min
same,half-life,[2],396 to 612 min
same,Vd,[2]; 8 mg/m2,735 L
same,clearance,[2]; 8 mg/m2,2320 mL/min
same,half-life,[2]; 8 mg/m2,558 min
same,Cmax,[2]; 8 mg/m^2/hr,274 nM
same,Vd,[2]; 16 mg/m2,514 L
same,clearance,[2]; 16 mg/m2,1690 mL/min
same,half-life,[2]; 16 mg/m2,510 min
same,Cmax,[2]; 16 mg/m^2/hr,911 nM
same,Vd,[2]; 32 mg/m2,328 L
same,clearance,[2]; 32 mg/m2,1160 mL/min
same,half-life,[2]; 32 mg/m2,612 min
same,Cmax,[2]; 32 mg/m^2/hr,2170 nM
same,Vd,[2]; 45 mg/m2,429 L
same,clearance,[2]; 45 mg/m2,1390 mL/min
same,half-life,[2]; 45 mg/m2,612 min
same,Cmax,[2]; 45 mg/m^2/hr,2670 nM
same,Vd,[2]; 64 mg/m2,301 L
same,clearance,[2]; 64 mg/m2,1270 mL/min
same,half-life,[2]; 64 mg/m2,480 min
same,Cmax,[2]; 64 mg/m^2/hr,4010 nM
same,Vd,[2]; 96 mg/m2,248 L
same,clearance,[2]; 96 mg/m2,893 mL/min
same,half-life,[2]; 96 mg/m2,396 min
same,Cmax,[2]; 96 mg/m^2/hr,7640 nM
